# Measured values taken from US6635771B2, “N-benzhydryl indole compounds” (Wyeth, priority 2001, dated 2003).
# Biological target: T1, cPLA2 (Homo sapiens, UniProt P47712)
# T1 sequence (P47712 1-749): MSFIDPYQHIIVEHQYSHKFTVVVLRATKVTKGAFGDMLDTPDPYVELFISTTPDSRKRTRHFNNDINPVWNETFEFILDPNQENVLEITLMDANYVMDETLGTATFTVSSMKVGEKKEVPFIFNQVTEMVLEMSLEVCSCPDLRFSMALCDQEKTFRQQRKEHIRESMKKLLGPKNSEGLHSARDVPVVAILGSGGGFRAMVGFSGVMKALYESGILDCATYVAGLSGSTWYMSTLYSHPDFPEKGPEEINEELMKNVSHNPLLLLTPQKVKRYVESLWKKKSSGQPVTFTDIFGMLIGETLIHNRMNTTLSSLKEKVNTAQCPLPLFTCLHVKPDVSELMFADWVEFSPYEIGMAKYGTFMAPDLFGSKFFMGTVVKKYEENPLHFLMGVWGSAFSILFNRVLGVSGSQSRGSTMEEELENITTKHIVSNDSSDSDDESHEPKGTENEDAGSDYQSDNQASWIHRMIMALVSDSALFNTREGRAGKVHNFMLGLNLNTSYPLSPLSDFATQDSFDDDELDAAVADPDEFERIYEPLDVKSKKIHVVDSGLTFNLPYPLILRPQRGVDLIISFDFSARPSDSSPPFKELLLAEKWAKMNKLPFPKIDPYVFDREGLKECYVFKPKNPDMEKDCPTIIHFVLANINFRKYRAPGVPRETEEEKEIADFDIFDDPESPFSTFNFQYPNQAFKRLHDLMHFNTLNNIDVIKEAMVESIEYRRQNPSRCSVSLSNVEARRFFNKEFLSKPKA
# Assay: Coumarine Assay
# Type: biochemical
# Details: 60 μM 7-hydroxycoumarinyl 6-heptenoate substrate, 4 μg cPLA2, pH 7.5, fluorescence ex 360 nm / em 460 nm; read-out: Coumarin IC50
row,Compound,IC50 [nM]
1,"O=C(O)c1ccc(OCCc2c(CCNS(=O)(=O)Cc3cc(Cl)cc(Cl)c3)n(C(c3ccccc3)c3ccccc3)c3cc(Cl)ccc23)cc1 [Example 107, 4-[2-{1-Benzhydryl-6-chloro-2-[2-(3,5-dichloro-phenylmethanesulfonylamino)-ethyl]-1H-indol-3-yl}-ethoxy)-benzoic acid]",330
2,"O=C(O)c1ccc(OCCc2c(CCNS(=O)(=O)CC3CCCCO3)n(C(c3ccccc3)c3ccccc3)c3ccc(Cl)cc23)cc1 (stereo not drawn) [Example 109, 4-{2-[1-Benzhydryl-5-chloro-2-(2-{[(tetrahydro-2H-pyran-2-ylmethyl)sulfonyl]amino}ethyl)-1H-indol-3-yl]ethoxy}benzoic acid]",400
3,"O=C(O)c1ccc(OCCc2c(CCNS(=O)(=O)Cc3nc4ccccc4o3)n(C(c3ccccc3)c3ccccc3)c3ccc(Cl)cc23)cc1 [Example 110, 4-{2-[1-Benzhydryl-2-(2-{[(1,3-benzoxazol-2-ylmethyl)sulfonyl]amino}ethyl)-5-chloro-1H-indol-3-yl]ethoxy}benzoic acid]",500
4,"O=C(O)c1ccc(OCCc2c(CCNS(=O)(=O)Cc3ccsc3)n(C(c3ccccc3)c3ccccc3)c3ccc(Cl)cc23)cc1 [Example 112, 4-{2-[1-Benzhydryl-5-chloro-2-(2-{[(3-thienylmethyl)sulfonyl]amino}ethyl)-1H-indol-3-yl]ethoxy}benzoic acid]",1200
5,"CC1CCCN1CCS(=O)(=O)NCCc1c(CCOc2ccc(C(=O)O)cc2)c2cc(Cl)ccc2n1C(c1ccccc1)c1ccccc1 (stereo not drawn) [Example 113, 4-[2-(1-Benzhydryl-5-chloro-2-{2-[2-(2-methyl-pyrrolidin-1-yl)-ethanesulfonylamino]-ethyl}-1H-indol-3-yl)-ethoxy]-benzoic acid]",1300
6,"CC1CCCCN1CCS(=O)(=O)NCCc1c(CCOc2ccc(C(=O)O)cc2)c2cc(Cl)ccc2n1C(c1ccccc1)c1ccccc1 (stereo not drawn) [Example 114, 4-[2-(1-Benzhydryl-5-chloro-2-{2-[2-(2-methyl-piperidin-1-yl)-ethanesulfonylamino]-ethyl}-1H-indol-3-yl)-ethoxy]-benzoic acid]",1100
7,"CC1CCC(C)N1CCS(=O)(=O)NCCc1c(CCOc2ccc(C(=O)O)cc2)c2cc(Cl)ccc2n1C(c1ccccc1)c1ccccc1 (stereo not drawn) [Example 115, 4-[2-(1-Benzhydryl-5-chloro-2-{2-[2-(2,5-dimethyl-pyrrolidin-1-yl)-ethanesulfonylamino]-ethyl}-1H-indol-3-yl)-ethoxy]-benzoic acid]",900
8,O=C(O)c1ccc(OCCc2c(CCNS(=O)(=O)CCN3CCCCC3)n(C(c3ccccc3)c3ccccc3)c3ccc(Cl)cc23)cc1 [Example 117],1600
9,"Cc1ccccc1SCS(=O)(=O)NCCc1c(CCOc2ccc(C(=O)O)cc2)c2cc(Cl)ccc2n1C(c1ccccc1)c1ccccc1 [Example 118, 4-{2-[1-benzhydryl-5-chloro-2-(2-o-tolylsulfanylmethanesulfonylamino-ethyl)-1H-indol-3-yl]-ethoxy}-benzoic acid]",400
10,O=C(O)c1ccc(OCCc2c(CCNS(=O)(=O)CSc3ccccc3Cl)n(C(c3ccccc3)c3ccccc3)c3ccc(Cl)cc23)cc1 [Example 119],400
11,"O=C(O)c1ccc(OCCc2c(CCNS(=O)(=O)CSc3c(Cl)cccc3Cl)n(C(c3ccccc3)c3ccccc3)c3ccc(Cl)cc23)cc1 [Example 120, 4-(2-{1-benzhydryl-5-chloro-2-[2-(2,6-dichloro-phenylsulfanylmethanesulfonylamino)-ethyl]-1H-indol-3-yl}-ethoxy)-benzoic acid]",400
12,"COc1ccc(OC)c(SCS(=O)(=O)NCCc2c(CCOc3ccc(C(=O)O)cc3)c3cc(Cl)ccc3n2C(c2ccccc2)c2ccccc2)c1 [Example 121, 4-(2-{1-benzhydryl-5-chloro-2-[2-(2,5-dimethoxy-phenylsulfanylmethanesulfonylamino)-ethyl]-1H-indol-3-yl}-ethoxy)-benzoic acid]",460
13,"O=C(O)c1ccc(OCCc2c(CCNS(=O)(=O)CCN3CCC(O)C3)n(C(c3ccccc3)c3ccccc3)c3ccc(Cl)cc23)cc1 (stereo not drawn) [Example 122, 4-[2-(1-benzhydryl-5-chloro-2-{2-[2-(3-hydroxy-pyrrolidine-1-yl)-ethanesulfonylamino]-ethyl}-1H-indol-3-yl)-ethoxy]-benzoic acid]",2500
14,"O=C(O)c1ccc(OCCc2c(CCNS(=O)(=O)CCN3CCC(O)CC3)n(C(c3ccccc3)c3ccccc3)c3ccc(Cl)cc23)cc1 [Example 123, 4-[2-(1-Benzhydryl-5-chloro-2-{2-[2-(4-hydroxy-piperidin-1-yl)-ethanesulfonylamino]-ethyl}-1H-indol-3-yl)-ethoxy]-benzoic acid]",1700
15,"CN(C)CC1CCCCN1CCS(=O)(=O)NCCc1c(CCOc2ccc(C(=O)O)cc2)c2cc(Cl)ccc2n1C(c1ccccc1)c1ccccc1 (stereo not drawn) [Example 124, 4-[2-(1-Benzhydryl-5-chloro-2-{2-[2-(2-dimethylaminomethyl-piperidin-1-yl)-ethanesulfonylamino]-ethyl}-1H-indol-3-yl)-ethoxy]-benzoic acid]",800
16,"O=C(O)c1ccc(CCCc2c(CCNS(=O)(=O)Cc3ccccc3)n(C(c3ccccc3)c3ccccc3)c3ccccc23)cc1 [Example 128, 4-[3-(1-benzhydryl-2-{2-[(benzylsulfonyl)amino]ethyl}-1H-indol-3-yl)propyl]benzoic acid]",320
17,"O=C(O)c1ccc(CNCc2c(CCNS(=O)(=O)Cc3ccccc3)n(C(c3ccccc3)c3ccccc3)c3ccc(Cl)cc23)cc1 [Example 134, 4-({[(1-benzhydryl-2-{2-[(benzylsulfonyl)amino]ethyl}-5-chloro-1H-indol-3-yl)methyl]amino}methyl)benzoic acid]",> 1000
18,"O=C(O)c1ccc(S(=O)(=O)CCc2c(CCNS(=O)(=O)Cc3ccccc3F)n(C(c3ccccc3)c3ccccc3)c3ccc(Cl)cc23)cc1 [Example 138, 4-({2-[1-benzhydryl-5-chloro-2-(2-{[(2-fluorobenzyl)sulfonyl]amino}ethyl)-1H-indol-3-yl]ethyl}sulfonyl)benzoic acid]",200
19,"O=C(O)c1ccc(OCCc2c(CCNS(=O)(=O)CCN3CCCC3)n(C(c3ccccc3)c3ccccc3)c3ccc(Cl)cc23)cc1 [Example 139, 4-(2-{1-Benzhydryl-5-chloro-2-[2-(2-pyrrolidin-1-yl-ethanesulfonylamino)-ethyl]-1H-indol-3-yl}-ethoxy)-benzoic acid]",1700

# Continued by falling IC50, values first:
row,IC50 [nM],Compound
1,200,"O=C(O)c1ccc(CCCc2c(CCNS(=O)(=O)Cc3c(F)cccc3F)n(C(c3ccccc3)c3ccccc3)c3ccc(Cl)cc23)cc1 [Example 126, 4-{3-[1-benzhydryl-5-chloro-2-{2-([(2,6-difluorobenzyl)sulfonyl]amino}ethyl)-1H-indol-3-yl]propyl}benzoic acid]"
2,200,"O=C(O)c1ccc(CCCc2c(CCNS(=O)(=O)Cc3ccc(Cl)c(Cl)c3)n(C(c3ccccc3)c3ccccc3)c3ccccc23)cc1 [Example 127, 4-{3-[1-benzhydryl-2-(2-{[(3,4-dichlorobenzyl)sulfonyl]amino}ethyl)-1H-indol-3-yl]propyl}benzoic acid]"
3,200,"O=C(O)CCc1ccc(S(=O)(=O)CCc2c(CCNS(=O)(=O)Cc3c(F)cccc3F)n(C(c3ccccc3)c3ccccc3)c3ccc(Cl)cc23)cc1 [Example 131, 3-[4-({2-[1-benzhydryl-5-chloro-2-(2-{[(2,6-difluorobenzyl)sulfonyl]amino}ethyl)-1H-indol-3-yl]ethyl}sulfonyl)phenyl]propanoic acid]"
4,200,"O=C(O)CCc1ccc(S(=O)(=O)CCc2c(CCNS(=O)(=O)Cc3ccccc3F)n(C(c3ccccc3)c3ccccc3)c3ccc(Cl)cc23)cc1 [Example 132, 3-[4-({2-[1-benzhydryl-5-chloro-2-(2-{[(2-fluorobenzyl)sulfonyl]amino}ethyl)-1H-indol-3-yl]ethyl}sulfonyl)phenyl] propanoic acid]"
5,200,O=C(O)c1ccc(S(=O)(=O)CCc2c(CCNS(=O)(=O)Cc3ccccc3)n(C(c3ccccc3)c3ccccc3)c3ccc(Cl)cc23)cc1 [Example 135]
6,180,O=C(O)c1ccc(S(=O)(=O)CCc2c(CCNS(=O)(=O)Cc3ccccc3Cl)n(C(c3ccccc3)c3ccccc3)c3ccc(Cl)cc23)cc1 [Example 136]
7,150,"N#Cc1ccccc1CS(=O)(=O)NCCc1c(CCOc2ccc(C(=O)O)cc2)c2cc(Cl)ccc2n1C(c1ccccc1)c1ccccc1 [Example 108, 4-{2-[1-Benzhydryl-5-chloro-2-(2-{[(2-cyanobenzyl)sulfonyl]amino}ethyl)-1H-indol-3-yl]ethoxy}benzoic acid]"
8,90,"O=C(O)CCc1ccc(S(=O)(=O)CCc2c(CCNS(=O)(=O)Cc3ccccc3Cl)n(C(c3ccccc3)c3ccccc3)c3ccc(Cl)cc23)cc1 [Example 133, 3-[4-({2-[1-benzhydryl-5-chloro-2-(2-{[(2-chlorobenzyl)sulfonyl]amino}ethyl)-1H-indol-3-yl]ethyl}sulfonyl)phenyl]propanoic acid]"
